Data from patent US20230085307A1, “PYRIDAZINONE COMPOUND AND HERBICIDE” (NISSAN CHEMICAL CORPORATION, priority 2019, published 2023).

How the values were obtained:
[1] = test system: barnyard grass; assay: Test Example 3: herbicidal effect by foliage application, Wagner pot (Table 18, symbol H); assay type: in vivo, barnyard grass (Echinochloa crus-galli); conditions: 320 g/ha
In short: (§1)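 Plants were sown in alluvial soil held under 0.1–0.5 cm standing water and grown 14 days in a greenhouse at 25–30 °C. An emulsifiable formulation, water-diluted to the set dose, was then sprayed onto the foliage, and effects were scored three weeks later using previously defined criteria.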

[2] = test system: Chinese sprangletop; assay: Test Example 3: herbicidal effect by foliage application, Wagner pot (Table 18, symbol D); assay type: in vivo, chinese sprangletop (Leptochloa chinensis); conditions: 320 g/ha
Procedure: [Test Example 3] Herbicidal Effect Test by Foliage Application After alluvial soil was placed into 1/10000 are of Wagner pot, water was poured and mixed to form a submerged condition having a water depth of 0.1 cm to 0.5 cm. Seeds of barnyard grass, Chinese sprangletop, rice flat sedge, and rice were sowed and the pot was placed in a greenhouse at 25° C. to 30° C. for growth of the plants. After 14-day growth of the plants, the emulsion agent of the compound of the present invention prepared according to Formulation Example 2 was diluted with water so as to achieve a predetermined herbicide amount, and the diluted emulsion agent was uniformly applied to a foliage part with a small-sized spray. Three weeks after the herbicide application, the effect of the herbicide on each plant was evaluated according to the criteria of Test Example 1.

[3] = test system: rice flat sedge; assay: Test Example 3: herbicidal effect by foliage application, Wagner pot (Table 18, symbol E); assay type: in vivo, rice flat sedge (Cyperus iria); conditions: 320 g/ha
In short: as §1

[4] = test system: southern crabgrass; assay: Test Example 5: herbicidal effect by foliage application, plastic box (Table 20, symbol F); assay type: in vivo, southern crabgrass (Digitaria ciliaris); conditions: foliage application, 320 g/ha; for herbicidal effect on southern crabgrass (F): three weeks after application
Description: (§2) [Test Example 5] Herbicidal Effect Test by Foliage Application
(§3) Sterilized diluvial soil was placed in a plastic box having a length of 21 cm, a width of 13 cm, and a depth of 7 cm. The seeds of each of southern crabgrass, green foxtail, barnyard grass, wild oat, blackgrass, Italian ryegrass, windgrass, velvetleaf, redroot pigweed, lambsquarters, chickweed, false cleavers, persian speedwell, corn, soybean, rice, wheat, beet, and rapeseed were sowed in a spot-like manner and covered with the soil having a thickness of about 1.5 cm. Thereafter, the plants were grown in a greenhouse at 25° C. to 30° C. After 14-day growth of the plants, the emulsion agent of the compound of the present invention prepared according to Formulation Example 2 was diluted with water so as to achieve a predetermined herbicide amount, and the diluted emulsion agent was uniformly applied to a foliage part with a small-sized spray. Three weeks after the herbicide application, the effect of the herbicide on each plant was evaluated according to the criteria of Test Example 1.

[5] = test system: green foxtail; assay: Test Example 5: herbicidal effect by foliage application, plastic box (Table 20, symbol G); assay type: in vivo, green foxtail (Setaria viridis); conditions: foliage application, 320 g/ha; for herbicidal effect on green foxtail (G): three weeks after application
Description: as §2, §3

[6] = test system: barnyard grass; assay: Test Example 5: herbicidal effect by foliage application, plastic box (Table 20, symbol H); assay type: in vivo, barnyard grass (Echinochloa crus-galli); conditions: foliage application, 320 g/ha; for herbicidal effect on barnyard grass (H): three weeks after application
Description: as §2, §3

[7] = test system: wild oat; assay: Test Example 5: herbicidal effect by foliage application, plastic box (Table 20, symbol I); assay type: in vivo, wild oat (Avena fatua); conditions: foliage application, 320 g/ha; for herbicidal effect on wild oat (I): three weeks after application
Description: as §2, §3

[8] = test system: blackgrass; assay: Test Example 5: herbicidal effect by foliage application, plastic box (Table 20, symbol J); assay type: in vivo, blackgrass (Alopecurus myosuroides); conditions: foliage application, 320 g/ha; for herbicidal effect on blackgrass (J): three weeks after application
Description: as §2, §3

[9] = test system: Italian ryegrass; assay: Test Example 5: herbicidal effect by foliage application, plastic box (Table 20, symbol K); assay type: in vivo, Italian ryegrass (Lolium multiflorum); conditions: foliage application, 320 g/ha; for herbicidal effect on Italian ryegrass (K): three weeks after application
Description: as §2, §3

[10] = test system: windgrass; assay: Test Example 5: herbicidal effect by foliage application, plastic box (Table 20, symbol L); assay type: in vivo, windgrass (Apera spica-venti); conditions: foliage application, 320 g/ha; for herbicidal effect on windgrass (L): three weeks after application
Description: as §2, §3

[11] = test system: velvetleaf; assay: Test Example 5: herbicidal effect by foliage application, plastic box (Table 20, symbol M); assay type: in vivo, velvetleaf (Abutilon theophrasti); conditions: foliage application, 320 g/ha; for herbicidal effect on velvetleaf (M): three weeks after application
Description: as §2, §3

[12] = test system: lambsquarters; assay: Test Example 5: herbicidal effect by foliage application, plastic box (Table 20, symbol O); assay type: in vivo, lambsquarters (Chenopodium album); conditions: foliage application, 320 g/ha; for herbicidal effect on lambsquarters (O): three weeks after application
Description: as §2, §3

[13] = test system: persian speedwell; assay: Test Example 5: herbicidal effect by foliage application, plastic box (Table 20, symbol R); assay type: in vivo, Persian speedwell (Veronica persica); conditions: foliage application, 320 g/ha; for herbicidal effect on persian speedwell (R): three weeks after application
Description: as §2, §3

SMILES | herbicidal effect on barnyard grass (H) [1] | herbicidal effect on Chinese sprangletop (D) [2] | herbicidal effect on rice flat sedge (E) [3] | herbicidal effect on southern crabgrass (F) [4] | herbicidal effect on green foxtail (G) [5] | herbicidal effect on barnyard grass (H) [6] | herbicidal effect on wild oat (I) [7] | herbicidal effect on blackgrass (J) [8] | herbicidal effect on Italian ryegrass (K) [9] | herbicidal effect on windgrass (L) [10] | herbicidal effect on velvetleaf (M) [11] | herbicidal effect on lambsquarters (O) [12] | herbicidal effect on persian speedwell (R) [13] | also measured
C#CCOc1c(C)nn(C)c(=O)c1-c1c(-c2ccc(F)cc2)sc2ccc(F)cc12 [2-006] | – | – | – | – | – | – | – | – | – | – | – | – | – | herbicidal effect on H (barnyard grass), rating 0-5 [1]: 2 (Herbicidal rate of 20% or more and less than 40%); herbicidal effect on D (Chinese sprangletop), rating 0-5 [2]: 0 (Herbicidal rate of 5% or less (almost no effect)); herbicidal effect on E (rice flat sedge), rating 0-5 [3]: 0 (Herbicidal rate of 5% or less (almost no effect)); effect on southern crabgrass (F) ([4]; 3 weeks after application): 0 (Herbicidal rate of 5% or less (almost no effect)); effect on green foxtail (G) ([5]; 3 weeks after application): 0 (Herbicidal rate of 5% or less (almost no effect)); effect on barnyard grass (H) ([6]; 3 weeks after application): 0 (Herbicidal rate of 5% or less (almost no effect)); effect on wild oat (I) ([7]; 3 weeks after application): 0 (Herbicidal rate of 5% or less (almost no effect)); effect on blackgrass (J) ([8]; 3 weeks after application): 0 (Herbicidal rate of 5% or less (almost no effect)); effect on Italian ryegrass (K) ([9]; 3 weeks after application): 0 (Herbicidal rate of 5% or less (almost no effect)); effect on windgrass (L) ([10]; 3 weeks after application): 0 (Herbicidal rate of 5% or less (almost no effect)); effect on velvetleaf (M) ([11]; 3 weeks after application): 0 (Herbicidal rate of 5% or less (almost no effect)); effect on lambsquarters (O) ([12]; 3 weeks after application): 0 (Herbicidal rate of 5% or less (almost no effect)); effect on persian speedwell (R) ([13]; 3 weeks after application): 2 (Herbicidal rate of 20% or more and less than 40%)
CCCC(=O)Oc1c(C)nn(C)c(=O)c1-c1c(-c2ccc(F)cc2)sc2cc(OC)c(OC)cc12 [5-058] | 0 (Herbicidal rate of 5% or less (almost no effect)) | 0 (Herbicidal rate of 5% or less (almost no effect)) | 3 (Herbicidal rate of 40% or more and less than 70%) | 0 (Herbicidal rate of 5% or less (almost no effect)) | 0 (Herbicidal rate of 5% or less (almost no effect)) | 0 (Herbicidal rate of 5% or less (almost no effect)) | 0 (Herbicidal rate of 5% or less (almost no effect)) | 0 (Herbicidal rate of 5% or less (almost no effect)) | 1 (Herbicidal rate of 5% or more and less than 20%) | 0 (Herbicidal rate of 5% or less (almost no effect)) | 0 (Herbicidal rate of 5% or less (almost no effect)) | 0 (Herbicidal rate of 5% or less (almost no effect)) | 0 (Herbicidal rate of 5% or less (almost no effect)) | –
COc1cc2sc(-c3ccc(F)cc3)c(-c3c(O)c(C)nn(C)c3=O)c2cc1Cl [5-067] | 3 (Herbicidal rate of 40% or more and less than 70%) | 5 (Herbicidal rate of 90% or more (almost completely withered)) | 4 (Herbicidal rate of 70% or more and less than 90%) | 0 (Herbicidal rate of 5% or less (almost no effect)) | 0 (Herbicidal rate of 5% or less (almost no effect)) | 0 (Herbicidal rate of 5% or less (almost no effect)) | 0 (Herbicidal rate of 5% or less (almost no effect)) | 1 (Herbicidal rate of 5% or more and less than 20%) | 0 (Herbicidal rate of 5% or less (almost no effect)) | 1 (Herbicidal rate of 5% or more and less than 20%) | 0 (Herbicidal rate of 5% or less (almost no effect)) | 3 (Herbicidal rate of 40% or more and less than 70%) | 4 (Herbicidal rate of 70% or more and less than 90%) | –
COc1ccccc1-c1oc2ccc(Cl)cc2c1-c1c(O)c(C)nn(C)c1=O [9-001] | – | – | – | 0 (Herbicidal rate of 5% or less (almost no effect)) | 0 (Herbicidal rate of 5% or less (almost no effect)) | 0 (Herbicidal rate of 5% or less (almost no effect)) | 0 (Herbicidal rate of 5% or less (almost no effect)) | 0 (Herbicidal rate of 5% or less (almost no effect)) | 0 (Herbicidal rate of 5% or less (almost no effect)) | 0 (Herbicidal rate of 5% or less (almost no effect)) | 2 (Herbicidal rate of 20% or more and less than 40%) | 3 (Herbicidal rate of 40% or more and less than 70%) | 0 (Herbicidal rate of 5% or less (almost no effect)) | –
